Test results: patent US12661410B2, “Compounds for targeted degradation of RET” (C4 Therapeutics, Inc., priority 2020, dated 2026)
Residue numbers refer to the chain shown, from its start. Where two headings read alike, the source gives them in different places.

What was measured:
RET (658-1114) = target: T1, RET (658-1114) (Homo sapiens, UniProt P07949); test: HiBiT-Degradation, RET wild-type degradation assay (Nano-Glo HiBiT Lytic), 293T.144 cells; format: cell-based; settings: for Emax / DC50: 6.0 hours
T1 construct: 658-1114; expressed in transfected cells; host or cells: 293T.144 (293T cells, generated in-house)
T1 sequence (P07949 658-1114): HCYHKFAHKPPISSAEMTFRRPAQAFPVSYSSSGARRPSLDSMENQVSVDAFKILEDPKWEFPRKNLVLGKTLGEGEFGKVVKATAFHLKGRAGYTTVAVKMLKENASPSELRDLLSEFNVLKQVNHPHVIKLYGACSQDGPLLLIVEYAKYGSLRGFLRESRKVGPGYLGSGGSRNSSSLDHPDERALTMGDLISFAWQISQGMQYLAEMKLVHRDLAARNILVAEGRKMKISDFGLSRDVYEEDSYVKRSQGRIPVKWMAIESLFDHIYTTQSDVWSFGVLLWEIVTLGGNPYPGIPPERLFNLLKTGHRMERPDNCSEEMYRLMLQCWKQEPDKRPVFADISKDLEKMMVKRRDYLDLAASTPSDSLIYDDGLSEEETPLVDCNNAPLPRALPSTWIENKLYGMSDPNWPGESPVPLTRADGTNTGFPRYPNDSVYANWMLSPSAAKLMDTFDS
Excerpt: (§1) Dulbecco's modified Eagle medium (DMEM) no-phenol red media and fetal bovine serum (FBS) were purchased from Gibco (Grand Island, NY, USA). Cell lines ectopically expressing wild-type or G810R RET kinase domain fused with a HiBiT tag were generated in-house (293T. 144 and 293T. 165, respectively). Cell culture flasks and 384-well microplates were acquired from VWR (Radnor, PA, USA). The Nano-Glo® HiBiT Lytic Assay System was purchased from Promega (Madison, WI, USA).
(§2) RET wild-type (WT) and G810R degradation were assessed using the Nano-Glo® HiBiT Lytic assay (Promega, Medison, WI, USA). To determine the effect of degraders on protein levels, cells were plated in 384-well plates and treated with compounds of interest in duplicates for 6 hours using an 11-point half-log dilution series, with the highest dose set at 10 μM. Cell lysis and addition of the Nano-Glo® HiBiT Lytic Assay reagents was then performed. Luminescence signal was measured using an EnVision™ Multimode plate reader (Perkin Elmer, Santa Clara, CA, USA). The half-maximal degradation concentration (DC50) and % remaining protein (Emax) was then derived from the dose-response curves.

RET(KD: 658-1114 G810R) = target: T2, RET(KD: 658-1114 G810R) (Homo sapiens, UniProt P07949, G810R); test: HiBiT-Degradation, RET G810R degradation assay (Nano-Glo HiBiT Lytic), 293T.165 cells; format: cell-based; settings: for Emax / DC50: 6.0 hours
T2 construct: 658-1114; expressed in transfected cells; host or cells: 293T.165 (293T cells, generated in-house)
T2 sequence (P07949 658-1114 G810R): T1 sequence (P07949 658-1114) with G153R
Excerpt: as §1, §2

[1] = % remaining protein, read-out: 293T.144 RET (658-1114) 6.0 hours (Emax)
[2] = half-maximal degradation concentration, read-out: 293T.144 RET (658-1114) 6.0 hours (DC50)
[3] = % remaining protein, read-out: 293T.165 RET(KD: 658-1114 G810R) 6.0 hours (Emax)
[4] = half-maximal degradation concentration, read-out: 293T.165 RET(KD: 658-1114 G810R) 6.0 hours (DC50)

Row | SMILES | 293T.144 RET (658-1114) 6.0 hours (IP) [nM] (RET (658-1114)) | Emax (RET (658-1114); [1]) | DC50 (RET (658-1114); [2]) | 293T.165 RET(KD: 658-1114 G810R) 6.0 hours (IP) [nM] (RET(KD: 658-1114 G810R)) | Emax (RET(KD: 658-1114 G810R); [3]) | DC50 (RET(KD: 658-1114 G810R); [4]) | 293T.144 RET (658-1114) 6.0 hours (IP) [nM] (RET (658-1114); HiBiT-Degradation) | DC50 (RET (658-1114); HiBiT-Degradation, read-out: 293T.144 RET (658-1114) 6.0 hours (DC50)) | Emax (RET (658-1114); HiBiT-Degradation, read-out: 293T.144 RET (658-1114) 6.0 hours (Emax)) | 293T.165 RET(KD: 658-1114 G810R) 6.0 hours (Emax) (RET(KD: 658-1114 G810R); HiBiT-Degradation) | 293T.165 RET(KD: 658-1114 G810R) 6.0 hours (IP) [nM] (RET(KD: 658-1114 G810R); HiBiT-Degradation) | DC50 (RET(KD: 658-1114 G810R); HiBiT-Degradation, read-out: 293T.165 RET(KD: 658-1114 G810R) 6.0 hours (DC50)) | HiBiT-Degradation 293T.144 RET (658-1114) 6.0 hours (IP) [nM] (RET (658-1114); RET wild-type) | DC50 (RET (658-1114); RET wild-type, read-out: HiBiT-Degradation 293T.144 RET (658-1114) 6.0 hours (DC50)) | Emax (RET (658-1114); RET wild-type, read-out: HiBiT-Degradation 293T.144 RET (658-1114) 6.0 hours (Emax)) | HiBiT-Degradation 293T.165 RET(KD: 658-1114 G810R) 6.0 hours (IP) [nM] (RET(KD: 658-1114 G810R); RET G810R) | DC50 (RET(KD: 658-1114 G810R); RET G810R, read-out: HiBiT-Degradation 293T.165 RET(KD: 658-1114 G810R) 6.0 hours (DC50)) | Emax (RET(KD: 658-1114 G810R); RET G810R, read-out: HiBiT-Degradation 293T.165 RET(KD: 658-1114 G810R) 6.0 hours (Emax))
1 | N#Cc1cnn2cc(-c3ccc(C4CCN(C(=O)CC5(O)CCN(c6ccc(NC7CCC(=O)NC7=O)cc6F)CC5)CC4)cc3)nc(-c3ccc(N4CCN(C(=O)c5ccon5)CC4)nc3)c12 (stereo not shown) [Compound 175, 6-[4-[1-[2-[1-[4-[(2,6-dioxo-3-piperidyl)amino]-2-fluoro-phenyl]-4-hydroxy-4-piperidyl]acetyl]-4-piperidyl]phenyl]-4-[6-[4-(isoxazole-3-carbonyl)piperazin-1-yl]-3-pyridyl]pyrazolo[1,5-a]pyrazine-3-carbonitrile] | ++++ (<50 nM = ++++) | < 30% | < 0.05 µM | ++++ (<50 nM = ++++) | < 50% | < 0.1 µM |  |  |  |  |  |  |  |  |  |  |  | 
2 | CCC1(c2ncccn2)CCN(c2ccc(-c3nc(-c4cnn([C@H]5CC[C@H](N6CCC(c7ccc(N[C@H]8CCC(=O)NC8=O)cc7F)CC6)CC5)c4)cn4ncc(C#N)c34)cn2)CC1 (single isomer, unassigned) [Compound 139] | ++++ (<50 nM = ++++) | < 30% | < 0.05 µM | ++++ (<50 nM = ++++) | < 30% | < 0.05 µM |  |  |  |  |  |  |  |  |  |  |  | 
3 | CCC1(C(=O)NC(C)C)CCN(c2ccc(-c3nc(-c4cnn(C5CCN(C(=O)CC6(O)CCN(c7ccc(N[C@@H]8CCC(=O)NC8=O)cc7Cl)CC6)CC5)c4)cn4ncc(C#N)c34)cn2)CC1 (single isomer, unassigned) [Compound 11] |  |  |  |  | < 30% | < 0.05 µM | ++++ (< 50 nM = ++++) | < 0.05 µM | < 30% | ++++ (< 30% = ++++) | ++++ (< 50 nM = ++++) | < 0.05 µM |  |  |  |  |  | 
4 | CCC1(C(=O)NC(C)C)CCN(c2ccc(-c3nc(-c4cnn(C5CCN(C(=O)CC6(O)CCN(c7ccc(NC8CCC(=O)NC8=O)cc7)CC6)CC5)c4)cn4ncc(C#N)c34)cn2)CC1 (stereo not shown) [Compound 85, 1-[5-[3-cyano-6-[1-[1-[2-[1-[4-[(2,6-dioxo-3-piperidyl)amino]phenyl]-4-hydroxy-4-piperidyl]acetyl]-4-piperidyl]pyrazol-4-yl]pyrazolo[1,5-a]pyrazin-4-yl]-2-pyridyl]-4-ethyl-N-isopropyl-piperidine-4-carboxamide] |  |  |  |  | < 50% | < 0.1 µM |  |  |  |  |  |  | ++++ (< 50 nM = ++++) | < 0.05 µM | < 30% | ++++ (< 50 nM = ++++) | < 0.1 µM | < 50%
5 | CCC1(C(=O)NC(C)C)CCN(c2ccc(-c3nc(-c4cnn([C@H]5CC[C@H](N6CCC(c7ccc(N[C@H]8CCC(=O)NC8=O)cc7F)CC6)CC5)c4)cn4ncc(C#N)c34)cn2)CC1 (single isomer, unassigned) [Compound 123] | ++++ (<50 nM = ++++) | < 30% | < 0.05 µM | ++++ (<50 nM = ++++) | < 30% | < 0.05 µM |  |  |  |  |  |  |  |  |  |  |  | 
